According to BindingDB's records for doi:10.1021/jm8010993:

Columns and labels:
Assay in all cases: PDE4 Enzyme Assay
Details in all cases: pH 8; 34 °C
[1] = biological target: cAMP-specific 3',5'-cyclic phosphodiesterase 4A (Homo sapiens, UniProt P27815)
Procedure: (§1) The samples were assayed in a solution composed of PDE4, [3H]cAMP/cAMP, and test compounds. To convert AMP to adenosine, snake venom was added to each sample after reactions were stopped. The reaction products were separated by anion-exchange chromatography performed on AGl-X8 resin, and the amount of unbound [3H] adenosine was collected and quantified by scintillation counting.

[2] = biological target: cAMP-specific 3',5'-cyclic phosphodiesterase 4B (Homo sapiens, UniProt Q07343)
Procedure: as §1

[3] = biological target: cAMP-specific 3',5'-cyclic phosphodiesterase 4D (Homo sapiens, UniProt Q08499)
Procedure: as §1

Sequence of cAMP-specific 3',5'-cyclic phosphodiesterase 4A (P27815 whole entry): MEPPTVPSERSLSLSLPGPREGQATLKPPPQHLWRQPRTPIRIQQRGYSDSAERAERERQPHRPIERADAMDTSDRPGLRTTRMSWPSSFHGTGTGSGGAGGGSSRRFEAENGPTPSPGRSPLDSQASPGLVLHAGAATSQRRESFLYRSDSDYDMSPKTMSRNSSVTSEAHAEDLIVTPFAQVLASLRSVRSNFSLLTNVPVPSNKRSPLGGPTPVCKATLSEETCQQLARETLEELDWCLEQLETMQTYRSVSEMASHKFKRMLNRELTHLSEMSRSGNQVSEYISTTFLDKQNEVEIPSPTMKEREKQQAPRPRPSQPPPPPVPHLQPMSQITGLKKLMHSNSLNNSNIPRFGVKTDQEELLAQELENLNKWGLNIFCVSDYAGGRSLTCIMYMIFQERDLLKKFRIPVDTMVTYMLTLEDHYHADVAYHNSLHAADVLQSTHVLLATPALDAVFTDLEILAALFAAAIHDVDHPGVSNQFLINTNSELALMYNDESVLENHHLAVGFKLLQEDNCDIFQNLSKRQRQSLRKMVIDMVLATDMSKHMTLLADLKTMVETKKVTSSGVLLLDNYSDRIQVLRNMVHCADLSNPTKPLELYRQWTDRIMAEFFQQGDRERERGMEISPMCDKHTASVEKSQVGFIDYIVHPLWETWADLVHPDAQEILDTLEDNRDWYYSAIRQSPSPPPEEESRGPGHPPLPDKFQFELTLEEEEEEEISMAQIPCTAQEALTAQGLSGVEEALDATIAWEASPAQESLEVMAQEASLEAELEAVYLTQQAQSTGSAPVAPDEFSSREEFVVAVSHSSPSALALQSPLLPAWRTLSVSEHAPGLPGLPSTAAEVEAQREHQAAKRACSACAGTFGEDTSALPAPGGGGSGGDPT
Sequence of cAMP-specific 3',5'-cyclic phosphodiesterase 4D (Q08499 whole entry): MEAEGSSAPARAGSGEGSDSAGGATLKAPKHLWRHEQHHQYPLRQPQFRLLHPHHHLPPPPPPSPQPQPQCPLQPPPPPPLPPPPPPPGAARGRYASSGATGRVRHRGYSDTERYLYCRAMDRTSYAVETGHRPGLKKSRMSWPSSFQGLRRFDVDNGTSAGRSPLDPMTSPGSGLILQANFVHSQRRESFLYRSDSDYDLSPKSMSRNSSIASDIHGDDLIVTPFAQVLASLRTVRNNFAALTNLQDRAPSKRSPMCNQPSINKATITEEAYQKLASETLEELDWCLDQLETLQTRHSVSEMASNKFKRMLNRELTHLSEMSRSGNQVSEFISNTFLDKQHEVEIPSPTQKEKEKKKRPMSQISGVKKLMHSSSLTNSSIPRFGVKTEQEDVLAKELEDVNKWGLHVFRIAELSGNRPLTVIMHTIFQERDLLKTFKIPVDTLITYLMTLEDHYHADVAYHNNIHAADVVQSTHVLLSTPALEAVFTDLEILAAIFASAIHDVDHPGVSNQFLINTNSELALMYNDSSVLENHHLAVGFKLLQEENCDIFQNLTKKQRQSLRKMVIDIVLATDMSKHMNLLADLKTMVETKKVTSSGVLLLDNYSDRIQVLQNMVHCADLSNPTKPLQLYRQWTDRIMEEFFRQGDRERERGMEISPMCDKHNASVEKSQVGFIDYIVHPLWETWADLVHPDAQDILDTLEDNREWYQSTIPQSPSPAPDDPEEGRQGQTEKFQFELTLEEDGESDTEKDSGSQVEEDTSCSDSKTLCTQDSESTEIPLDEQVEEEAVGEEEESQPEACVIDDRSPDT
Sequence of cAMP-specific 3',5'-cyclic phosphodiesterase 4B (Q07343 whole entry): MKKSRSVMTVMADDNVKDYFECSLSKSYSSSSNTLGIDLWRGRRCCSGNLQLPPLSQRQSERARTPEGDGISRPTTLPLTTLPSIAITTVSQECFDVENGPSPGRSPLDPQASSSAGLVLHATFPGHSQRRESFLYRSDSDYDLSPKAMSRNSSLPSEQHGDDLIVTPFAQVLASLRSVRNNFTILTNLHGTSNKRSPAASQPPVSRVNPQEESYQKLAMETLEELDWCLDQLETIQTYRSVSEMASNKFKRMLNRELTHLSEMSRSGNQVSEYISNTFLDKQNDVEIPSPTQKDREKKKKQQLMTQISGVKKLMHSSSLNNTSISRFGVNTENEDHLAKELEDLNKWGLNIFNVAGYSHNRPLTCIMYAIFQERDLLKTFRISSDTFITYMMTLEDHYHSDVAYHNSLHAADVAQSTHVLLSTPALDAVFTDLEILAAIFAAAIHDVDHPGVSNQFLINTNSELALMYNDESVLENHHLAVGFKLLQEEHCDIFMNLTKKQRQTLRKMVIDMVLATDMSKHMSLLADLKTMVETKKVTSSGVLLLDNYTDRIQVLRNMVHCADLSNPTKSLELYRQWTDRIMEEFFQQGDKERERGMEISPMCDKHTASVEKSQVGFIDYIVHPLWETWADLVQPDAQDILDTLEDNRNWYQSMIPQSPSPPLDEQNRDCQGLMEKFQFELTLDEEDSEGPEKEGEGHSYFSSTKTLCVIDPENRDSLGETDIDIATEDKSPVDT

Compound: COc1ccc(F)c(CCC2CCC(CCNCCCCCN3N=C(c4ccc(OC)c(OC)c4)C4CC=CCC4C3=O)O2)c1 (stereo not drawn) [phthalazinone, 21]
- Ki [1]: > 1000 nM
- Ki [2]: 199 nM
- Ki [3]: 2 nM
